Experimental data from patent publication US20140073637A1, “AMINO-SUBSTITUTED-ALKYLOXY-BENZO[E]PYRIDO[4,3-B]INDOLE DERIVATIVES AS NEW POTENT KINASE INHIBITORS” (INSTITUT CURIE, priority 2011, published 2014).

Assays:
H358 cells = experiment: Cell viability test (CellTiter 96 AQueous One Solution); assay type: cell-based; conditions: for IC50: Homo sapiens, NCI-H358, H358 (Lung), 72 h of treatment, read-out: IC50 (cell line viability)
Procedure: (§1) H358, H322 (lung cancer cells), U373 (glioblastomes) and HeLa ([…]) were grown in DMEM (1.5 g/L glucose) whereas HL60 (human myeloid cell line) cells were in RPMI 1640. U2OS (a human osteosarcoma cell line) cells were cultured in McCoy's Medium 5 A and liver cells (SK Hep 1) in DMEM (4 g/L glucose, (Gibco-Invitrogen). Media (Gibco-Invitrogen), were supplemented with 10% heat-inactivated foetal bovine serum (Gibco-Invitrogen), L-glutamine (2 mM), penicillin (100 UI/ml) and streptomycin (100 μg/ml).
(§2) Cell proliferation assays were conducted in 96 well culture plates. Assays were run in triplicate. Cell viability was estimated upon 72 h of treatment with varying concentrations of compound by addition of CellTiter 96Queous one Solution Reagent (Promega) directly to culture wells under conditions defined by the manufacturer.

HL60 = experiment: as above; assay type: cell-based; conditions: Homo sapiens, HL-60; HL60 (Leukemia); 72 h of treatment; read-out: IC50 (cell line viability)
Procedure: as §1, §2

U2OS = experiment: as above; assay type: cell-based; conditions: Homo sapiens; U2OS (Osteosarcoma); 72 h of treatment; read-out: IC50 (cell line viability) (converted)
Procedure: as §1, §2

U373 = experiment: as above; assay type: cell-based; conditions: Homo sapiens, U373 MG; U373 (Glioblastoma); 72 h of treatment; read-out: IC50 (cell line viability)
Procedure: as §1, §2

RSK1 = RSK1 (Homo sapiens, UniProt Q15418); experiment: In vitro assay against recombinant kinases (FIG. 2); assay type: biochemical
Procedure: (§3) Assays were run in vitro against recombinant kinases. The activity is reported for each kinase, grey histograms for CH21, white for C14 and gradation grey for C1. […] Therefore, C1 and C14 affect differently the Aurora kinase family.
(§4) The profiling was performed at the MRC (Dundee University), in duplicate, on a set of 121 kinases. The panel is representative of the major different classes of kinases. Compounds were used at the concentration of 1 μM. In vitro, IC50 were determined on recombinant kinases by Reaction biology Corp (USA).

RSK2 = RSK2 (Homo sapiens, UniProt P51812); experiment: as above; assay type: biochemical
Procedure: as §3, §4

Src = Src (Homo sapiens, UniProt P12931); experiment: as above; assay type: biochemical
Procedure: as §3, §4

121 kinases = experiment: Kinase profiling on a set of 121 kinases; assay type: biochemical; conditions: for Known Targets (%): kinases presenting the highest inhibitions, lists not exhaustive
Procedure: FIG. 1A: The potential inhibition of C14 was tested against 121 kinases, in vitro, at the concentration of 1 μM. The kinase activities, in the presence of C14, are represented, each kinase being represented by a vertical bar. Only 18 kinases have less than 30% activity in the presence of C14.
The specificity of C14 was tested, in vitro, against 121 kinases representative of the kinome. Assays run in duplicate, at the concentration of 1 μM, were performed by MRC (Dundee, UK). Results are represented in FIG. 1. The main targets are highlighted in FIG. 1B.
as §4

HeLa cells = experiment: Cell cycle analysis by FACS (propidium iodide); assay type: cell-based; conditions: 0.5 μM
Procedure: The influence of the C14 treatment versus C1 and control (Te) were analysed by FACS following propidium iodine labelling. C1 and C14 were added at the concentration of 0.5 μM and the treatment lasted either 30 h or 48 h. On the top histogram, arrows allowed the visualization of the different phases of the cell cycle and the corresponding data are reported in Table 4.
HeLa cells were incubated in the presence of either C1 (0.5 μM) or C14 (0.5 μM) or DMSO (Te) and the reparation of the cells in the different phases is analyzed by FACS.
Cells were incubated in either the presence or the absence of compounds. For determination of cell cycle profile, cells were fixed by ice-cold 70% ethanol for 1 h and then, incubated with propidium iodide solution (50 μg/ml PI in the presence of 0.2 mg/ml RNAse) for 15 minutes at 37° C. DNA content was measured using the FACS flow cytometer equipped with CellQuest Pro software (Becton Dickinson, San Diego, Calif.).

[1] = test system: HeLa cells stably expressing aurora B-GFP; experiment: Time-lapse of HeLa cells expressing aurora B-GFP; assay type: cell-based; conditions: 0.5 μM; continuous imaging
Procedure: FIG. 7A: Cells treated by either DMSO (CO: control) or C1 (0.5 μM) or C14 (0.5 μM) were continuously imaged with a ZEISS confocal microscope. […] Mitotic cells were found fluorescent and GFP was concentrated on the centromeres. In control conditions, centromere aligned at metaphase and upon anaphase ongoing fluorescence concentrates on the spindle and finally in the midbody (A, CO). The shape of the cells is visualized by white dotted lines.
HeLa cells expressing aurora B-GFP were treated by either C14 (0.5 μM) or C1 (0.5 μM) or DMSO (control; Co). Mitotic cells were continuously imaged under controlled conditions (37° C. and 5% CO2). The localisation of aurora B-GFP is represented and the elapsed time indicated in the three conditions (FIG. 7A). Control cells divided normally; Aurora B presented on the centromeres (FIG. 7A, CO, To and 10 min) was then transferred on microtubules (FIG. 7A, CO 45 min) and finally concentrated in the mid body (FIG. 7A, CO, 1 h). […] These cells escaped from mitosis without anaphase and gave rise to micronuclei (FIG. 7B, C1). In the presence of C14 (0.5 μM), chromosome aligned normally (FIG. 7B, C14 To) and aurora B-GFP was found accumulated in the mid-zone (FIG. 7B, C14, 18 min, 40 min and 2 h). Finally, these cells spread again without division (FIG. 7B, C14 4 h). […]

Chain of RSK1 (Q15418 whole entry, species assumed): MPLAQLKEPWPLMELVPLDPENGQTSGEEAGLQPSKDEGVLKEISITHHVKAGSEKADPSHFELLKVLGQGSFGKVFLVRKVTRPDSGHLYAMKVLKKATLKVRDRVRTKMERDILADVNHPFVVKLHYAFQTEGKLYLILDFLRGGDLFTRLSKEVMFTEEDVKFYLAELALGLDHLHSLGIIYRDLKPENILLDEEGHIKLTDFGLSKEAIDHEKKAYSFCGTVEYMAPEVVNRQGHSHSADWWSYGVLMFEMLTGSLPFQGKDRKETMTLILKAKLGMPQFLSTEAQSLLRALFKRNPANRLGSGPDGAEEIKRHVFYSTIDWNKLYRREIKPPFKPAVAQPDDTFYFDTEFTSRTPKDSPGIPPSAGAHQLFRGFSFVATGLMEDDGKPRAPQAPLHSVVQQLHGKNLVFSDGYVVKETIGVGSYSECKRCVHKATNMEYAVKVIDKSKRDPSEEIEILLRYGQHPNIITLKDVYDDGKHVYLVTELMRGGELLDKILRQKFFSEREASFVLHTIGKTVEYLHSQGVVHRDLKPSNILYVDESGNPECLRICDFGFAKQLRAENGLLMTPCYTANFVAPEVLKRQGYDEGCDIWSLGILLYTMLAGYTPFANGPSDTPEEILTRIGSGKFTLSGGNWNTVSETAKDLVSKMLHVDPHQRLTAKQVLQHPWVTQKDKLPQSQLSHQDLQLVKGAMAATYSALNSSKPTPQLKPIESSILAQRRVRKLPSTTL
Chain of Src (P12931 whole entry, species assumed): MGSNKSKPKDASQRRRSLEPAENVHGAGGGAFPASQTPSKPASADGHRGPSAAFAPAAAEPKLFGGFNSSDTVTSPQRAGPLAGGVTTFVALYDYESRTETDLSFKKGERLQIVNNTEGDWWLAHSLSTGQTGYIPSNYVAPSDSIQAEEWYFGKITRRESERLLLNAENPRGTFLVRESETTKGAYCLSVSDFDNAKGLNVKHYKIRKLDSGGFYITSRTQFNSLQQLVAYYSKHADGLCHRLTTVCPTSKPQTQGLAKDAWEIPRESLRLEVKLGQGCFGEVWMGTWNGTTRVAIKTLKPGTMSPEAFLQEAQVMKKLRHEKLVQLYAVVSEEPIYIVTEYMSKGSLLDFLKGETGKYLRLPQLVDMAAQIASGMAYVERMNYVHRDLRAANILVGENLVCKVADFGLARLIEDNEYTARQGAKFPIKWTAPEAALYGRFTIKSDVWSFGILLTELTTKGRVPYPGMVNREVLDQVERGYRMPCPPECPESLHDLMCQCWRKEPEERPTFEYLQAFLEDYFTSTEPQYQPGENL
Chain of RSK2 (P51812 whole entry): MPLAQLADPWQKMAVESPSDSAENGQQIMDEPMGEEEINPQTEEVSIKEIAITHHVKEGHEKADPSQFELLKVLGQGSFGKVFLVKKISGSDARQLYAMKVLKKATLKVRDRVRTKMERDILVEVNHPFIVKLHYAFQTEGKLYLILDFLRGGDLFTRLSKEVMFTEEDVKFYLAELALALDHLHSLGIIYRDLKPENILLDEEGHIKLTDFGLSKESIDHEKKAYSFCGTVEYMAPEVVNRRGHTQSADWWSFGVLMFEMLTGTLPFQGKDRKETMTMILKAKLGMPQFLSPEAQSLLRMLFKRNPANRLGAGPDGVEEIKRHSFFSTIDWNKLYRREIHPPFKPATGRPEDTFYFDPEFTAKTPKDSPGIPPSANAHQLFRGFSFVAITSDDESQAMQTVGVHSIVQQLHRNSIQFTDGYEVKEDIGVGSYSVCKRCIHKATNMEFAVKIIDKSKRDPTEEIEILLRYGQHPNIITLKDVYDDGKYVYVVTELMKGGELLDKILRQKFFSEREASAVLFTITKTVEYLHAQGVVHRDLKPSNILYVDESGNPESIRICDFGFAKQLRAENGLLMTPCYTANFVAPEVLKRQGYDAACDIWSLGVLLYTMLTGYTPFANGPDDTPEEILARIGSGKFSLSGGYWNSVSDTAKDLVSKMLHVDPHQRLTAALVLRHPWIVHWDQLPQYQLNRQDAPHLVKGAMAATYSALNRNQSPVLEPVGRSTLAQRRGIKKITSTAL

IC50 (H358 cells)	IC50 (HL60)	IC50 (U2OS)	effect on kinase activity (FIG. 2, in words) (RSK1)	effect on kinase activity (FIG. 2, in words) (RSK2)	effect on kinase activity (FIG. 2, in words) (Src)	Known Targets (%) (121 kinases)	Compound	IC50 (U373)	<2N in % (HeLa cells; 30 h)	>4N in % (HeLa cells; 30 h)	G0/G1 in % (HeLa cells; 30 h)	G2/M in % (HeLa cells; 30 h)	S in % (HeLa cells; 30 h)	<2N in % (HeLa cells; 48 h)	>4N in % (HeLa cells; 48 h)	G0/G1 in % (HeLa cells; 48 h)	G2/M in % (HeLa cells; 48 h)	S in % (HeLa cells; 48 h)	impairment of mitosis (in words) [1]	also measured
145 nM	350 nM	> 1000 nM	highly inhibited	highly inhibited	highly inhibited	Aurora A Aurora B Chk2 FLT3 Melk	CCc1c[nH]c(=O)c2c1[nH]c1ccc3cc(OC)ccc3c12 [Compound C1, reference compound]	> 1000 nM	6%	26%	24%	28%	13%	6%	41%	18%	22%	8%	prevented anaphase ongoing	cells still cycling (HeLa cells; after 48 h of treatment): 48%
470 nM	> 2000 nM	720 nM	not affected	not affected	not affected	Aurora B NUAK1 TrkA Tak1 Gck Chk1 Chk2	Cc1c[nH]c(=O)c2c1[nH]c1ccc3cc(OCCN(C)C)ccc3c12 [Compound C14, 3-(2-N,N-Dimethylaminoethoxy)-8-methyl-7H,10H-benzo[e]pyrido(4,3-b)indol-11-one]	3100 nM	19%	56%	3%	18%	4%	22%	56%	2%	4%	2%	affected cytokinesis	death of cycling cells (H358 cells; 0.5 μM, cycling H358 cells): more than 50%; number of kinases with less than 30% activity in the presence of compound (121 kinases; 121 kinases tested in vitro at 1 μM): 18; cells in G0/G1 and S (HeLa cells; 30 h): 7%; cells in G0/G1 and S (HeLa cells; 48 h): 5%

Compound	IC50 (H358 cells)	IC50 (HL60)	IC50 (U2OS)	effect on kinase activity (FIG. 2, in words) (RSK1)	effect on kinase activity (FIG. 2, in words) (RSK2)	effect on kinase activity (FIG. 2, in words) (Src)	Known Targets (%) (121 kinases)	IC50 (U373)	<2N in % (HeLa cells; 30 h)	>4N in % (HeLa cells; 30 h)	G0/G1 in % (HeLa cells; 30 h)	G2/M in % (HeLa cells; 30 h)	S in % (HeLa cells; 30 h)	<2N in % (HeLa cells; 48 h)	>4N in % (HeLa cells; 48 h)	G0/G1 in % (HeLa cells; 48 h)	G2/M in % (HeLa cells; 48 h)	S in % (HeLa cells; 48 h)	impairment of mitosis (in words) [1]	also measured
Cc1cncc2c1[nH]c1ccc3cc(OCCN(C)C)ccc3c12 [CH21, 3-(2-N,N-dimethylaminoethyloxy)-8-methyl-7H-benzo[e]pyrido(4,3-b)indole]	450 nM	> 2000 nM	1100 nM	None of these kinases were significantly affected	None of these kinases were significantly affected	None of these kinases were significantly affected	NUAK1 TrkA Tak1 Gck Flt3	360 nM												
